The structures appear in SMILES notation.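 Interpolation was linear, between the two tested concentrations surrounding the appropriate level; five concentrations were tested over 48 hours in 96-well plates. GI50 marks 50% less growth.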 Active and inactive are the calls of the source. No stated cut-off is given here; in the data, active = GI50 up to about 1.1 µM and inactive = higher. Bounds are passed on as bounds.

Among the test systems are OVCAR-8; HT-29; ACHN; IGROV-1; SK-MEL-2; HOP-62; SF-268; UACC-62; A498; SNB-75; SK-MEL-5; MDA-N; HL-60; HCT-15; Malme-3M; CAKI-1; Hs-578T; HCC 2998; OVCAR-4; LOX IMVI.
Common to all, as to assay: DTP human tumour cell line panel, 48 h

Regarding `CN(C)CCNC(=O)c1cccc(NC(=O)c2ccccc2)c1[N+](=O)[O-]`, the GI50 in the assay with OVCAR-8 is > 100 µM (inactive); in the assay on HT-29 it was 25.5 µM (inactive); in the assay on ACHN it was > 100 µM (inactive); in the assay on IGROV-1 it was > 100 µM (inactive); with SK-MEL-2 it was > 100 µM (inactive); in the assay with HOP-62 it was > 100 µM (inactive). Further, the GI50 was > 100 µM (inactive) in the assay on SF-268; > 100 µM (inactive) with UACC-62; > 100 µM (inactive) in the assay on A498; 36 µM (inactive) in the assay with SNB-75; 77.1 µM (inactive) in the assay on SK-MEL-5; > 100 µM (inactive) in the assay with MDA-N. The GI50 was > 100 µM (inactive) in the assay with HL-60; above 100 µM in the assay with HCT-15; 12.8 µM (inactive) in the assay on Malme-3M; > 100 µM (inactive) in the assay with CAKI-1; > 100 µM (inactive) with Hs-578T; > 100 µM (inactive) in the assay with HCC 2998.

With `COC(=O)c1c(O)c(C#N)c2[nH]c3ccccc3n2c1=O`, the GI50 in the assay on OVCAR-8, in the assay on HT-29, in the assay on ACHN, in the assay on IGROV-1, in the assay on SK-MEL-2 and with HOP-62 was > 100 µM (inactive) throughout. In addition, the GI50 in the assay on SF-268, in the assay on UACC-62, in the assay on A498, in the assay with SNB-75, in the assay with SK-MEL-5 and with MDA-N was > 100 µM (inactive) throughout. The GI50 in the assay on HL-60 is > 100 µM (inactive); in the assay on OVCAR-4, > 100 µM (inactive); in the assay on HCT-15, above 100 µM; in the assay with Malme-3M it was > 100 µM (inactive); with CAKI-1 it was > 100 µM (inactive); in the assay on Hs-578T, > 100 µM (inactive). The GI50 in the assay on HCC 2998 was > 100 µM (inactive).

`C[C@]12CCC3c4ccc(O)cc4CC[C@H]3C1CC(=O)N(N)C2=O` (stereo not given in full): the GI50 in the assay with OVCAR-8, with HT-29, with ACHN, with IGROV-1, in the assay with HOP-62 and with SF-268 was > 100 µM (inactive) in each case. Also, the GI50 with UACC-62, with A498, with SNB-75, in the assay on SK-MEL-5, in the assay with MDA-N and in the assay with HL-60 was > 100 µM (inactive) in each case. The GI50 with OVCAR-4, in the assay with Malme-3M, in the assay with CAKI-1, in the assay with Hs-578T and in the assay on HCC 2998 was > 100 µM (inactive) each time.

Turning to `CC(C)(C)OC(=O)NCC(c1c[nH]c2ccccc12)c1c[nH]c2ccccc12`, the GI50 was 16.7 µM (inactive) with OVCAR-8; 15.1 µM (inactive) with HT-29; > 100 µM (inactive) in the assay on ACHN; 12.3 µM (inactive) in the assay with IGROV-1; 18.4 µM (inactive) in the assay with SK-MEL-2; 16.9 µM (inactive) in the assay with HOP-62. Also, the GI50 is 17.1 µM (inactive) in the assay on SF-268; > 100 µM (inactive) in the assay on UACC-62; > 100 µM (inactive) with A498; 14.7 µM (inactive) with SNB-75; 13 µM (inactive) with SK-MEL-5; 17.5 µM (inactive) in the assay with MDA-N. For the same compound, the GI50 in the assay with HL-60 was 14.4 µM (inactive); with OVCAR-4, 12.9 µM (inactive); in the assay with HCT-15 it was 20.8 µM; in the assay with Malme-3M, 17.7 µM (inactive); in the assay on CAKI-1, 14.5 µM (inactive); with LOX IMVI, 17.9 µM (inactive). Besides, the GI50 in the assay with Hs-578T is 24.1 µM (inactive).

As to `COc1cc(-c2c[nH]c3ccccc23)nc(-c2c[nH]c3ccccc23)n1`, the GI50 was 4.97 µM (inactive) with OVCAR-8; 3.63 µM (inactive) in the assay on HT-29; 2.61 µM (inactive) with ACHN; 1.85 µM (inactive) in the assay with IGROV-1; 4.94 µM (inactive) in the assay on SK-MEL-2; 8.89 µM (inactive) in the assay with HOP-62. In addition, the GI50 in the assay with SF-268 was 14.7 µM (inactive); with UACC-62, 6.18 µM (inactive); in the assay on A498 it was 2.3 µM (inactive); in the assay on SNB-75 it was 6.1 µM (inactive); in the assay with SK-MEL-5, 5 µM (inactive); in the assay with MDA-N, 4.05 µM (inactive). The GI50 with HL-60 is 3.43 µM (inactive); with OVCAR-4, 8.81 µM (inactive); in the assay on HCT-15 it was 5.61 µM; in the assay on CAKI-1, 5.89 µM (inactive); in the assay with LOX IMVI, 4.84 µM (inactive); with Hs-578T, 16.3 µM (inactive). Further, in the assay with HCC 2998, the GI50 is 4.22 µM (inactive).

Regarding `Clc1nc(Cl)c(Cl)c(Cl)n1`, the GI50 is 26.4 µM (inactive) with OVCAR-8; 20.7 µM (inactive) in the assay with HT-29; 8.91 µM (inactive) in the assay on ACHN; 19.9 µM (inactive) with IGROV-1; 19.6 µM (inactive) with HOP-62; 17.2 µM (inactive) with SF-268. For the same compound, the GI50 in the assay on UACC-62 was 18.5 µM (inactive); with A498, 19.4 µM (inactive); in the assay on SNB-75, 17.8 µM (inactive); in the assay on SK-MEL-5 it was 17.6 µM (inactive); with MDA-N, 19.1 µM (inactive); in the assay with HL-60 it was 13.5 µM (inactive). Also, the GI50 was 23 µM (inactive) in the assay with OVCAR-4; 19.1 µM in the assay on HCT-15; 16 µM (inactive) with Malme-3M; 17.8 µM (inactive) in the assay with CAKI-1; 11.3 µM (inactive) with LOX IMVI; 20.9 µM (inactive) with Hs-578T. Moreover, in the assay with HCC 2998, the GI50 was 18.7 µM (inactive).

As to `COc1ccc(N2C(=O)/C(=C/c3ccc(N(CCC#N)CCC#N)cc3)N=C2c2ccccc2)cc1`, the GI50 with OVCAR-8, in the assay with HT-29, in the assay on ACHN, in the assay on IGROV-1, in the assay with SK-MEL-2 and in the assay on HOP-62 was > 100 µM (inactive) in each case. For the same compound, the GI50 in the assay with SF-268, with UACC-62, with A498, in the assay on SNB-75, in the assay with SK-MEL-5 and with MDA-N was > 100 µM (inactive) in each case. Moreover, the GI50 with HL-60 is > 100 µM (inactive); with OVCAR-4, > 100 µM (inactive); in the assay with HCT-15, above 100 µM; in the assay on Malme-3M, > 100 µM (inactive); with CAKI-1, 6.19 µM (inactive); in the assay with LOX IMVI, > 100 µM (inactive). Moreover, in the assay on Hs-578T, the GI50 is > 100 µM (inactive).

In the case of `COc1cc2oc(=O)ccc2cc1C(=O)CC(C)C`, the GI50 in the assay on OVCAR-8, in the assay with HT-29, in the assay with ACHN, in the assay on IGROV-1, in the assay with SK-MEL-2 and with HOP-62 was > 100 µM (inactive) each time. For the same compound, the GI50 was 99.3 µM (inactive) in the assay on SF-268; > 100 µM (inactive) in the assay on UACC-62; > 100 µM (inactive) in the assay with A498; 78.7 µM (inactive) in the assay on SNB-75; > 100 µM (inactive) in the assay on SK-MEL-5; > 100 µM (inactive) in the assay on MDA-N. Further, the GI50 was 39.2 µM (inactive) in the assay on HL-60; 71.1 µM (inactive) with OVCAR-4; above 100 µM in the assay with HCT-15; 22.9 µM (inactive) in the assay with CAKI-1; > 100 µM (inactive) in the assay with LOX IMVI; 38.5 µM (inactive) with Hs-578T. In the assay on HCC 2998, the GI50 was > 100 µM (inactive).

With `O=C1N(CN2CCOCC2)CN(CN2CCOCC2)C(=O)N1Cc1ccc(CN2C(=O)N(CN3CCOCC3)CN(CN3CCOCC3)C2=O)cc1`, the GI50 was 42 µM (inactive) with OVCAR-8; 42 µM (inactive) with HT-29; 41.8 µM (inactive) in the assay on ACHN; > 100 µM (inactive) with IGROV-1; 20.6 µM (inactive) with SK-MEL-2; > 100 µM (inactive) in the assay with HOP-62. The GI50 in the assay on SF-268 is 28.4 µM (inactive); in the assay on UACC-62, 31.2 µM (inactive); in the assay on A498 it was > 100 µM (inactive); in the assay on SNB-75, 89.7 µM (inactive); with SK-MEL-5, > 100 µM (inactive); in the assay with MDA-N, 31.7 µM (inactive). Moreover, the GI50 is 60.1 µM (inactive) in the assay on HL-60; 35.7 µM (inactive) in the assay with OVCAR-4; 31.2 µM in the assay with HCT-15; 38.3 µM (inactive) in the assay with CAKI-1; 23.9 µM (inactive) in the assay with LOX IMVI; 22 µM (inactive) in the assay on Hs-578T. Besides, the GI50 in the assay with HCC 2998 is > 100 µM (inactive).

For the compound `O=c1[nH]c2ccc(C(F)(F)F)cc2nc1-c1ccccc1`, the GI50 in the assay on OVCAR-8 was 52.4 µM (inactive); in the assay with HT-29 it was > 100 µM (inactive); in the assay with ACHN, > 100 µM (inactive); in the assay on IGROV-1, > 100 µM (inactive); in the assay on HOP-62 it was > 100 µM (inactive); in the assay with SF-268 it was > 100 µM (inactive). Also, the GI50 with UACC-62, with A498, in the assay on SNB-75, in the assay on SK-MEL-5, in the assay on MDA-N and with HL-60 was > 100 µM (inactive) each time. Also, the GI50 was above 100 µM with HCT-15; > 100 µM (inactive) in the assay on Malme-3M; > 100 µM (inactive) in the assay on CAKI-1; > 100 µM (inactive) in the assay with LOX IMVI; 59.6 µM (inactive) with Hs-578T; > 100 µM (inactive) in the assay on HCC 2998.

Consider `N/C(=N\c1ccc(Cl)cc1)c1ccccc1N`, for which the GI50 in the assay on OVCAR-8, in the assay on HT-29, in the assay on ACHN, with IGROV-1, in the assay with HOP-62 and with SF-268 was > 100 µM (inactive) throughout. Moreover, the GI50 in the assay on UACC-62, with A498, in the assay on SNB-75, in the assay on SK-MEL-5, with MDA-N and with HL-60 was > 100 µM (inactive) in each case. Also, the GI50 with OVCAR-4 is > 100 µM (inactive); in the assay with HCT-15, above 100 µM; in the assay on Malme-3M, > 100 µM (inactive); in the assay on CAKI-1, > 100 µM (inactive); in the assay with LOX IMVI, > 100 µM (inactive); in the assay on Hs-578T it was > 100 µM (inactive). Besides, the GI50 in the assay with HCC 2998 is > 100 µM (inactive).

Usually GI50 stands for the concentration that inhibits growth by half.

The values are drawn from ChEMBL document CHEMBL1201862, “PubChem BioAssay data set” (2004).
